Test results as given in US7033829B2, “Method to inhibit cell growth using oligonucleotides” (Trustees of Boston University, priority 2000, dated 2006).
Oligonucleotides are written 5' to 3', each unit as a sugar letter and its base; * is a phosphorothioate linkage, no mark a phosphodiester; rarer units and linkages stand in square brackets, end groups in braces. Plain capitals give the bases only. d = 2'-deoxy (DNA); {P} = phosphate

Columns and labels:
[1] = system: p53-null H1299 lung carcinoma cells; assay: Cell growth of p53-null H1299 cells; assay type: cell-based, human; conditions: 100 μM; days 1–4
Source text: Both the GADD 45 and SDI 1 genes are known to be transcriptionally regulated by the tumor suppressor protein p53. After UV- and γ-irradiation, as well as treatment of cells with DNA-damaging chemical agents, there is a rapid stabilization, phosphorylation and nuclear accumulation of p53 after which this protein binds to specific promoter consensus sequences and modulates the transcription of regulated genes. […] In order to determine whether the inhibitory effect of the dinucleotide pTpT on cell proliferation is mediated in part through p53, the growth response of a p53 null cell line, H1299 lung carcinoma cells, was examined. The p53-null H1299 cells (Sanchez, Y. et al., Science 271:357–360 (1996)) were maintained in DMEM with 10% calf serum. Preconfluent cultures were given fresh medium supplemented with either 100 μM pTpT or diluent. Cells were collected on consecutive days by trypsinization, and counted by Coulter™ counter.

[2] = system: Primary newborn fibroblasts; assay: Protection of fibroblasts against H2O2; assay type: cell-based; conditions: for cell yields higher compared to diluent pre-treated control: 10 μM 3 days, within 72 hours
Protocol: Primary newborn fibroblasts were treated for 3 days with 10 μM pTpT or diluent as control and then treated with 5×10^−5 or 5×10^−4 M H2O2. Within 72 hours of H2O2 exposure, cell yields of pTpT pre-treated cultures were 45±1% and 139±5% higher, respectively, compared to diluent pre-treated control samples. 72 hours after exposure of the […] H2O2 dose, only 9.6±2.4% of the diluent pre-treated cells survived.

[3] = system: human melanocytes; assay: Melanogenesis in human melanocytes; assay type: cell-based; conditions: after one week in culture
[4] = system: p95/Nbs1; assay: Modification / phosphorylation of p95/Nbs1 (western blot); assay type: cell-based, human
Protocol: Cells were plated at a density of 180,000 cells/ml in RPMI 1640 medium supplemented with 3% FBS. Cells were treated with 40 μM of either of the oligonucleotides for 72 hours. Cells were then collected, washed and fixed for 30 minutes in 4% paraformaldehyde and then permeabilized with 0.1% Triton X-100 for 2 minutes. The TUNEL assay was carried out with components and instructions of the In Situ Cell Death Detection Kit using fluorescein-labeled dUTP from Boehringer Mannheim. TUNEL-positive cells were detected by FACS analysis and confocal microscopy. Cellular Uptake of Oligonucleotides For confocal analysis, Jurkat cells were plated on Permanox chamber slides (Lab-Tek, Naperville, Ill.) and treated for 4 hours with fluorescein phosphoramidite (FAM)-labeled oligonucleotides (Research Genetics, Inc., Huntsville, Ala.). […] Uptake of the oligonucleotides was assessed in 5–10 μm sections with a Carl Zeiss LSM 510 confocal laser microscope. […] Fluorescence was measured on the FL-1 channel. […] Antibody Ab-6 (DO-1 clone, Oncogene Research Products, Cambridge, Mass.) detected p53; antibody KH95 (Santa Cruz Biotechnology, Inc., Santa Cruz, Calif.) detected E2F1; antibody Ab-4 (Oncogene Research products) detected p73. Phospho-p53 (serine 15) was detected using the #9284 polyclonal antibody and phospho-p95/Nbs1 (serine 343) was detected by a phospho-p95/Nbs1-specific polyclonal antibody, both antibodies from Cell Signaling Technology (Beverly, Mass.). p95/Nbs1 antibody (#NB-100-143, Novus Biologicals, Littleton, Colo.) and an actin antibody (I-19, Santa Cruz Biotechnology, Santa Cruz, Calif.) were also used. […] After the indicated times, total protein was collected and analyzed by 8% PAGE and western blot using a polyclonal antibody to p95/Nbs1 (#NB-100-143, Novus Biologicals, Littleton, Colo.). […] Telomere length was determined essentially as described by van Steensel and de Lange (van Steensel, B. and T. de Lange. 1997, Nature 385: 740–743) using the Telo TAGGG Telomere Length Assay from Roche Molecular Biochemicals (Indianapolis, Ind.) and the protocol supplied by the manufacturer. […]

In the case of thymidine dinucleotide [pTpT], the “proliferation compared to diluent-treated controls” value [1] was “no inhibition of proliferation”, the “cell yields higher compared to diluent pre-treated control” value ([2]; 5×10^−4 M H2O2) was 139±5% and the “cell yields higher compared to diluent pre-treated control” value ([2]; 5×10^−5 M H2O2) was 45±1%. For the same substance, the “increase of cell survival” value ([2]; 5×10^−4 M H2O2) was 2–9 fold and the “protection of cell survival” value ([2]; low H2O2 dose) was “complete protection”.

With “pGAGTATGAG (DNA, 5' {P}, backbone not given here) [SEQ ID NO: 1]” the increase in melanogenesis [3] was 51–62%.

For “pGTTAGGGTTAG (DNA {P}-dGdTdTdAdGdGdGdTdTdAdG) [SEQ ID NO: 5]”, the “shift in p95/Nbs1 migration” value ([4]; Jurkat cells, 48, 72 and 96 hours) was “detects such a shift in p95/Nbs1 migration”, the “shift in p95/Nbs1 migration” value ([4]; SCC12F cells) was “respond identically” and the “phosphorylation of p95/Nbs1 (phospho-specific antibody)” value ([4]; fibroblasts) was “phosphorylation of p95/Nbs1 is induced”.
